Data published in the NIST ThermoML archive (doi:10.1021/acs.jced.8b01053).
Numbers after ± are expanded uncertainties.

Details: Liquid, Ebulliometric method (Recirculating still)

| vapor or sublimation pressure (391.07 K) [kPa] | vapor or sublimation pressure (413.46 K) [kPa] | vapor or sublimation pressure (330.01 K) [kPa] | vapor or sublimation pressure (349.53 K) [kPa] | SMILES |
| --- | --- | --- | --- | --- |
| 50 ± 1 | 100 ± 1 | – | – | CC(=O)OCCC(C)C [3-methylbutyl ethanoate] |
| – | – | 50 ± 1 | 100 ± 1 | CCOC(C)=O [ethyl acetate] |
